Source: patent publication US6787318B1, “Assay for evaluating the therapeutic effectiveness of agents in reducing Alzheimer's disease pathology” (Roskamp Research Institute, LLC, priority 1999, dated 2004)
Entries after “also recorded” stand apart in the source; their conditions may differ.

Tests used:
[1] = system: CD40; assay: CD40 cell ELISA on cultured HAEC; type: cell-based, human; conditions: Aβ 50 nM to 10,000 nM; IFN-γ 5 to 500 U/mL; 48 hours
Experimental: To determine if CD40 expression on cultured HAEC was IFN-γ or Aβ dose-dependent, CD40 cell ELISA assays were performed according to published procedures. Briefly, cultured HAEC were plated at 2×10^4 cells/well in flat-bottom, 96-well tissue culture plates (Nunc-Immuno™ Plate, Denmark). […] Other HAEC were treated with a dose range (5 U/mL to 500 U/mL) of IFN-γ. […] Forty-eight hours post-treatment, plates were fixed overnight at 4° C. in 1% paraformaldehyde diluted in 1×PBS, washed three times with wash buffer (0.5% Tween 20 in 1×PBS), and subsequently incubated with […] of blocking buffer (10% fetal bovine serum in wash buffer) for one hour at 37° C. Cells were then treated with purified anti-human CD40 antibody ([…], PharMingen, Los Angeles, Calif.) in […] of blocking buffer for one hour at 37° C. Plates were washed four times with wash buffer. Biotinylated anti-mouse IgG1 (PharMingen, Los Angeles, Calif.; 1:2,000 dilution in blocking buffer, […]) was added and incubated for one hour at 37° C., followed by the addition of […] of a 1:3,000 dilution of HRP-Streptavidin (ZYMED, San Francisco, Calif.) for thirty minutes at 37° C. Plates were washed 4× with wash buffer and developed for twenty minutes at room temperature using the 3, 3′, 5, 5′-tetramethylbenzidine (TMB) one-step substrate system (DAKO, Carpinteria, Calif.) followed by the addition of 100 μL/well of 2N H2SO4 to stop the reaction. Absorbance was measured at 450 nm using a microplate spectrophotometer (SPECTRAmax 250, Molecular Devices, Sunnyvale, Calif.).

[2] = system: IL-1β; assay: Human IL-1β release ELISA, HAEC with or without CD40 ligation; type: cell-based; conditions: for IL-1β release following CD40 ligation: 48 hour pre-treatment, then CD40L for eight hours; for IL-1β release in the absence of CD40L stimulation: Aβ 500 nM, IFN-γ 10 U/mL, 48 hours
Experimental: To examine if endothelial CD40 would be functional, cultured HAEC were plated at 5×10^4 cells/well in 6-well tissue culture plates (Nunc-Immuno™ Plate, Denmark) and incubated at 37° C. with human CD40L recombinant protein (CD40L, 0.5 ug/mL, kindly provided by Dr. Jean-Yves Bonnefoy, Glaxo Institute for Molecular Biology, Geneva) in fresh cultured media for eight hours, and cell-free supernatants were collected for IL-1β release assay. The assay for human IL-1β was performed in strict accordance with the manufacturer's instruction using the human Predicta™ IL-1β Kit (Genzyme). Absorbance at 450 nm was measured using a microplate spectrophotometer (SPECTRAmax 250, Molecular Devices, Sunnyvale, Calif.).
A second group of cells was subjected to these same treatments and incubated with CD40L ([…]) for eight hours following the initial 48 hour treatment period. IL-1β release was then quantified using a human IL-1β ELISA kit as described in materials and methods.

[3] = system: IFN-γR; assay: IFN-γR expression in HAEC, cell-ELISA (CELISA) and Western blotting; type: cell-based, human; conditions: for expression of IFN-γR on cytokine treatment: recombinant human cytokine
Experimental: (§1) In vitro measurement of Aβ-induced changes in expression of the inflammatory cell-surface molecules CD40 and […] in cultured HAEC and HASM cells was performed using a slightly modified ABC-based cell-ELISA (CELISA). […] After PBS washes, 4% neutral formalin solution (Sigma) was used for fixation of the cells. Following quenching of the endogenous peroxidase activity with 3% H2O2 and routine blocking of non-specific binding, the biotinylated specific secondary antibodies against the primary antibodies (goat anti-mouse or anti-rabbit IgG) were applied. The combination of EXTRAVIDIN® Proxidase and the subsequent color reaction was performed strictly according to the manufacturer's instructions in the EXTRAVIDIN® Peroxidase Staining Kit (Sigma). The absorbance of 405 nm was then measured using a microplate reader (SPECTRAmax 250, Molecular Devices). The optical density (O.D.) value for the wells in the absence of the primary antibody for each group was considered as background and subtracted as the blank. In addition, stimulation with IFN-γ for CD40 was included as a positive control in the appropriate plate. Since CD45 is not expressed by endothelial or smooth muscle cells, the assays for expression of CD45 in these Aβ-treated cells were used as negative controls throughout the experiment. In addition, to evaluate the degree of cell death or proliferation in the Aβ-treated, cells, parallel experiments were performed using the MTS (3-(4,5-dimethylthiazol-2-yl)-5-(3-carboxymethoxyphenyl)-2-(4-sulfophenyl)-2H-tetrazolium) cell-proliferation kit (Promega).
(§2) Activation of CD40 signalling can be achieved by stimulation with either CD40L or certain anti-CD40 mAbs. Since synthetic CD40L is not commercially available, one of the anti-CD40 mAbs (clone 3/23), which has been reported to activate CD40 signalling, was used to mimic the effect of interaction of CD40-CD40L. All Aβ-treated cells were incubated with 1 μg/ml anti-CD40 mAb […]) for four hours followed by CELISA.
The total protein was estimated using the Bio-Rad protein assay. An aliquot corresponding to 100 μg of total protein of each sample was separated by SDS/PAGE (polyacrylamide gel electrophoresis) and transferred electrophoretically to PVDF filters. Non-specific binding of antibody was blocked with 5% non-fat dry milk, in 20 mM Tris/HCl, pH 7.5/150 mM NaCl/0.1% Triton X-100. Immunoblotting was carried out with the appropriate antibody followed by alkaline phosphatase-conjugated secondary anti-immunoglobulin antibodies. These were then developed by the chemiluminescence method (Bio-Rad).

[4] = system: CD40; assay: CD40 expression in Aβ-treated N9 and N60 microglial cells, flow cytometry; type: cell-based, murine
Source text: Mononuclear cells from AD patients secrete markedly higher levels of IFN-γ compared to age-matched controls (18).

[5] = system: CD40; assay: CD40 protein in cultured HAEC, Western immunoblotting; type: cell-based, human; conditions: Aβ 5 μM, IFN-γ 100 U/mL, 48 hours
Experimental: Cultured HAEC were plated at 1×10^6 cells/well in 100 mm culture dishes (Falcon, Becton Dickinson Inc. New Jersey). […] Cells were washed in ice-cold phosphate buffered saline (PBS) three times and lysed in an ice-cold lysis buffer containing 0.2 mM EDTA, 20 mM Tris/HCl (pH 8.0), 100 mM NaCl, 3% Nonidet P-40, 50 mM NaF, 10 mM sodium pyrophosphate, 2 mM orthovanadate, 10 μg/mL each of aprotinin and leupeptin and 1 mM PMSF. After incubation for thirty minutes on ice, samples were centrifuged at 15,000 rpm for fifteen minutes, and supernatants were collected. Total protein content was estimated using the Bio-Rad protein assay. An aliquot corresponding to 50 μg of total protein of each sample was separated by SDS-PAGE and transferred electrophoretically to Hy-bond PVDF membranes (Bio-Rad, California). Nonspecific antibody binding was blocked overnight at 4° C. with 5% non-fat dry milk in TBS (20 mM Tris, 500 mM NaCl, pH 7.5). […] Blots were also carried out on identical membranes with a reference anti-actin mouse monoclonal antibody (Boehringer Mannhem), which allowed for semi-quantitative CD40 protein determination. Densitometric analysis was performed for protein bands using the Fluor-S™ MultiImager with Quantity One™ software (Bio-Rad, California).

[6] = system: CD40; assay: CD40 expression in HAEC, cell-ELISA (CELISA); type: cell-based, human; conditions: for expression of CD40 on cytokine treatment: recombinant human cytokine
Experimental: as §1

[7] = system: CD40; assay: CD40 cell-surface expression on HAEC, flow cytometry; type: cell-based, human; conditions: Aβ 500 nM, IFN-γ 10 U/mL; vs control peptide or Aβ-free
Experimental: Cultured HAEC were treated as described above. […] Cells were analyzed on a FACScan flow cytometer (Becton-Dickinson, Mountain View, Calif.) using LYSIS-II software. CD40-expressing cells are defined as percentage of CD40-staining cells minus the percentage of IgG1-staining cells.
CD40 expression between control peptide-treated and Aβ-free AEC was relatively similar.

[8] = system: IL-1β; assay: IL-1β secretion from HAEC, ELISA; type: cell-based, human
Experimental: (§3) The assay for either IL-1β or IFN-γ was performed in strict accordance with the manufacturer's instructions for the respective assay kits.
(§4) The resulting cell culture media were assayed for IL-1β or IFN-γ using ELISA. […] The lowest effective concentration was determined to be 100 nM for IFN-γ ([…]). The lowest effective concentration was determined to be 100 nM for IFN-γ (p<0.01) and 1 μM for IL-1β (p<0.01).

[9] = system: HAEC; assay: MTS cell death/proliferation in Aβ-treated HAEC; type: cell-based, human; conditions: 10 or 20 μM
Experimental: as §1, with “In addition, to evaluate the degree of cell death or proliferation in the Aβ-treated, cells, parallel experiments were performed using the MTS (3-(4,5-dimethylthiazol-2-yl)-5-(3-carboxymethoxyphenyl)-2-(4-sulfophenyl)-2H-tetrazolium) cell-proliferation kit (Promega).” left out

[10] = system: HAEC; assay: Cytotoxicity in HAEC, LDH release assay; type: cell-based, human; conditions: 500 nM, 48 hours
Experimental: Previous reports have shown that overexpression of amyloid precursor protein or exogenous addition of Aβ peptides can have cytotoxic effects on cultured endothelial cells.
In order to determine if ligation of endothelial CD40 could result in production of pro-inflammatory cytokines, IL-1β was measured following treatment with IFN-γ or Aβ peptides. […] There was not observe a significant induction of endothelial cell death by LDH release assay between treatment groups during the time course examined by IL-1β release assay (by One-way ANOVA, F(6,41)=0.322, p=0.921), supporting the hypothesis that stimulation of the CD40 pathway in endothelial cells results in an early pro-inflammatory cascade which later promotes cell injury, rather than induce cytotoxicity acutely.

[11] = system: IFN-γR; assay: IFN-γR expression in HASM cells, cell-ELISA (CELISA); type: cell-based, human
Experimental: as §1, §2

[12] = system: IFN-γ; assay: IFN-γ secretion from HAEC, ELISA; type: cell-based, human
Experimental: as §3, §2, §4

[13] = system: neurons; conditions: exogenous, at levels similar to those produced by activated microglia; cited from earlier work
[14] = system: primary cultured cortical neurons; assay: Primary cultured microglia-mediated neuronal cell injury (micrographs, 51Cr release, LDH release); type: cell-based, mice; conditions: primary cultured microglia with cortical neurons
Source text: CD45 positive cells (brown) are microglia, while neurofilament L-staining cells (red) are neurons. […] Results shown are from one of three independent experiments with similar results; FIG. 2E is a graph showing primary cultured microglia-mediated neuronal cell injury as evidenced by ^51Cr release. Data are reported as mean ^51Cr release values±1 SEM and n=9 for each condition presented. […] N=9 for each condition presented.
Having shown that Aβ peptides activate microglia through the CD40 pathway, it was then investigated whether activation of Aβ-pretreated microglia by ligation of CD40 could mediate neuronal cell injury (23,24).

[15] = system: cortical neurons; assay: Cortical neurons incubated with treated N9 microglia, photomicrographs; type: cell-based, murine; conditions: Aβ1-42 250 nM, CD40L 0.5 μg/ml
[16] = system: TNF-α; assay: TNF-α release from cultured microglia, TNF-α ELISA; type: cell-based, mice; conditions: microglia pre-treated with 500 nM Aβ1-42
[17] = increasing concentrations, 24 hours

Molecule: IFN-γ: Human IFN-γ recombinant protein (Genzyme)
- dose dependence of endothelial CD40 [1]: dose-dependent induction of endothelial CD40
- IL-1β release following CD40 ligation [2]: synergistic effect; also recorded: more pronounced than Aβ's effect
- IL-1β release in the absence of CD40L stimulation [2]: not sufficient to elicit IL-1β
- expression of IFN-γR on cytokine treatment [3]: up-regulate the expression of CD40 and IFN-γR
- effect of cytokine on Aβ-dependent CD40 expression ([4]; low dose 10 U/mL, Aβ-challenged microglia): synergistically enhances Aβ-dependent CD40 expression
- increase in CD40 expression vs control peptide or Aβ-free, Western [5]: ~2.5 fold
- expression of CD40 on cytokine treatment [6]: up-regulate the expression of CD40 and IFN-γR
- CD40 cell-surface expression, flow cytometry [7]: significantly induce CD40 expression

Molecule: IL-1β: recombinant human cytokine
- expression of IFN-γR on cytokine treatment [3]: up-regulate the expression of CD40 and IFN-γR
- expression of CD40 on cytokine treatment [6]: up-regulate the expression of CD40 and IFN-γR

Molecule: Aβ1-40: amyloid β peptide 1-40, freshly solubilized
- IL-1β secretion at largest dose ([8]; 20 μM): has no effect
- IL-1β secretion, dose dependence [8, 17]: does not show a dose-dependent effect
- cell death, MTS assay, HAEC [9]: significant amount of cell death
- cell injury, LDH release [10]: no significant induction of cell injury
- IFN-γR expression in HASM cells ([11]; 48 hours): induces a significant effect on IFN-γR
- IFN-γR expression in HASM cells on CD40 ligation by mAb (3/23) ([11]; Aβ-treated cells, 1 μg/ml mAb, four hours): synergistic
- IFN-γ production at largest dose ([12]; 20 μM, vs control): does induce a significant production of IFN-γ
- IFN-γ secretion, dose dependence [12, 17]: does not show a dose-dependent effect
- dose dependence of endothelial CD40 [1]: marked increase in endothelial CD40 which is dose-dependent
- IL-1β release following CD40 ligation [2]: synergistic effect
- IL-1β release in the absence of CD40L stimulation [2]: not sufficient to elicit IL-1β
- IFN-γR expression in HAEC ([3]; 48 hours): neither Aβ1-40 nor Aβ25-35 modulate the IFN-γR expression
- CD40 expression on cultured microglial cells ([4]; 250 nM freshly solubilized peptide, N9 and N60 cells, vs control peptide or Aβ-free): significantly induce CD40 expression
- increase in CD40 expression vs control peptide or Aβ-free, Western [5]: ~2 fold
- CD40 expression in HAEC, dose dependence [6]: dose-dependently increase CD40 expression
- lowest effective concentration for CD40 expression ([6]; HAEC): 10 µM
- CD40 cell-surface expression, flow cytometry [7]: significantly induce CD40 expression

Molecule: TNF-α
- neuronal injury and death, LDH release [13]: dose-dependently induces neuronal injury and death

B1: CD40L: human CD40L recombinant protein (protein)
chain: ENSFEMQKGDQNPQIAAHVISEASSKTTSVLQWAEKGYYTMSNNLVTLENGKQLTVKRQGLYYIYAQVTFCSNREASSQAPFIASLCLKSPGRFERILLRAANTHSSAKPCGQQSIHLGGVFELQPGASVFVNVTDPSQVSHGTGFTSFGLLKL
- IL-1β release ([2]; CD40L and Aβ-free condition): approximately 50 pg/mg total protein
- neuronal degeneration / injury in micrographs [14]: not detectable
- change in cortical neurons [15]: no change in cortical neurons
- TNF-α release on addition of CD40L [16]: synergistically increases TNF-α release
